Assay results as given in paper PMC4775225, “Bromodomain inhibition of the transcriptional coactivators CBP/EP300 as a therapeutic strategy to target the IRF4 network in multiple myeloma” (eLife, 2016).
Where two headings read alike, the source gives them in different places.

Tests used:
AMO-1 = assay: Viability, resazurin, 6 days; type: cell-based, human; conditions: for GI50: Homo sapiens, AMO1, 144 h, AMO-1, myeloma, 6 days
Protocol: (§1) Cells were plated at 5000–10000 cells per well of 96-well plates containing titrations of the compounds as indicated. After incubation, the cells were incubated with 500 μg/ml resazurin (Sigma) in PBS for 2–8 hr, and fluorescence was measured (Ex 530 nm, Em 590 nm). Cell cycle analysis was performed as described previously ([Mertz et al., 2011]). For visualization, DNA content histograms were generated with GraphPad Prism. Dose-response curves were generated by plotting the normalized percent growth, percent sub-G1 and percent increase in G0/G1 at each dose values. GI50 values were determined as the concentration at which viability was 50% of the DMSO value and calculated by a four-parameter non-linear regression model in GraphPad Prism.

KMM-1 = assay: Viability, resazurin, 6 days; type: cell-based, human; conditions: for GI50: Homo sapiens, 144 h, KMM-1, myeloma, 6 days
Protocol: as §1

KMS28BM = assay: Viability, resazurin, 6 days; type: cell-based, human; conditions: for GI50: Homo sapiens, KMS-28BM, 144 h, myeloma, 6 days
Protocol: as §1

LP-1 = assay: Viability, resazurin, 6 days; type: cell-based, human; conditions: for GI50: Homo sapiens, 144 h, LP-1, myeloma, 6 days
Protocol: as §1

MOLP-8 = assay: Viability, resazurin, 6 days; type: cell-based, human; conditions: for GI50: Homo sapiens, 144 h, MOLP-8, myeloma, 6 days
Protocol: as §1

NCI-H929 = assay: Viability, resazurin, 6 days; type: cell-based, human; conditions: for GI50: Homo sapiens, 144 h, NCI-H929, myeloma, 6 days
Protocol: as §1

OPM2 = assay: Viability, resazurin, 6 days; type: cell-based, human; conditions: for GI50: Homo sapiens, OPM-2, 144 h, OPM2, myeloma, 6 days
Protocol: as §1

RPMI-8226 = assay: Viability, resazurin, 6 days; type: cell-based, human; conditions: for GI50: Homo sapiens, 144 h, RPMI-8226, myeloma, 6 days
Protocol: as §1

RS4;11 = assay: Viability, resazurin, 6 days; type: cell-based, human; conditions: for GI50: Homo sapiens, 144 h, RS4;11, ALL, 6 days
Protocol: as §1

HL60 = assay: Viability, resazurin, 6 days; type: cell-based; conditions: Homo sapiens, HL-60, 144 h, HL60, APL
Protocol: as §1

JJN3 = assay: Viability, resazurin, 6 days; type: cell-based; conditions: Homo sapiens, JJN-3, 144 h, JJN3, myeloma
Protocol: as §1

Jurkat = assay: Viability, resazurin, 6 days; type: cell-based; conditions: Homo sapiens, 144 h, ALL
Protocol: as §1

KMS12BM = assay: Viability, resazurin, 6 days; type: cell-based; conditions: Homo sapiens, KMS-12-BM, 144 h, myeloma
Protocol: as §1

KMS12PE = assay: Viability, resazurin, 6 days; type: cell-based; conditions: Homo sapiens, KMS-12-PE, 144 h, myeloma
Protocol: as §1

KMS21BM = assay: Viability, resazurin, 6 days; type: cell-based; conditions: Homo sapiens, KMS-21BM, 144 h, myeloma
Protocol: as §1

KMS26 = assay: Viability, resazurin, 6 days; type: cell-based; conditions: Homo sapiens, KMS-26, 144 h, KMS26, myeloma
Protocol: as §1

KMS27 = assay: Viability, resazurin, 6 days; type: cell-based; conditions: Homo sapiens, KMS-27, 144 h, KMS27, myeloma
Protocol: as §1

Kasumi-1 = assay: Viability, resazurin, 6 days; type: cell-based; conditions: Homo sapiens, 144 h, Kasumi-1, AML
Protocol: as §1

ML2 = assay: Viability, resazurin, 6 days; type: cell-based; conditions: Homo sapiens, ML-2, 144 h, ML2, AML
Protocol: as §1

MOLM-13 = assay: Viability, resazurin, 6 days; type: cell-based; conditions: Homo sapiens, 144 h, MOLM-13, AML
Protocol: as §1

MOLT4 = assay: Viability, resazurin, 6 days; type: cell-based; conditions: Homo sapiens, MOLT-4, 144 h, MOLT4, ALL
Protocol: as §1

NB4 = assay: Viability, resazurin, 6 days; type: cell-based; conditions: Homo sapiens, NB-4, 144 h, NB4, APL
Protocol: as §1

ROS 50 = assay: Viability, resazurin, 6 days; type: cell-based; conditions: Homo sapiens, 144 h, ROS 50, ALL
Protocol: as §1

SET2 = assay: Viability, resazurin, 6 days; type: cell-based; conditions: Homo sapiens, SET-2, 144 h, SET2 D6, AML
Protocol: as §1

SKNO-1 = assay: Viability, resazurin, 6 days; type: cell-based; conditions: Homo sapiens, 144 h, SKNO-1, AML
Protocol: as §1

U266 = assay: Viability, resazurin, 6 days; type: cell-based; conditions: Homo sapiens, U-266, 144 h, U266, myeloma
Protocol: as §1

VAL = assay: Viability, resazurin, 6 days; type: cell-based; conditions: Homo sapiens, 144 h, ALL
Protocol: as §1

MYC mRNA = MYC mRNA expression, qRT-PCR; type: cell-based, human; conditions: for IC50: Homo sapiens, read-out: IC50, inhibition of MYC mRNA expression; for log2FC (MYC): 2.5 μM, 6 hr, log2 fold change relative to DMSO
Protocol: Total RNA was prepared with an RNeasy Mini Kit (Qiagen, Inc.; Hilden, Germany) with on column DNAse digestion and submitted to Ocean Ridge Biosciences (Palm Beach Gardens, FL) for sequencing and mapping. The data in RPKM for each gene with compound treatment was compared to DMSO treatment, and log2 fold changes were used for further analysis. Rank ordered gene lists were used for Gene Set Enrichment Analysis ([Subramanian et al., 2005]). RNA preparation, cDNA synthesis, and qRT-PCR were performed as described ([Mertz et al., 2011]). For dose titration experiments, cells in 96 -well plates were lysed in lysis buffer (1% Triton X-100, […] pH 2.5) and used directly for cDNA synthesis and qRT-PCR. Primer sequences can be found in Supplementary file 1.

CCC(=O)N1CCOc2c(cc(-c3ccc(OC)c(OC)c3)cc2OC[C@H]2CCCN(C)C2)C1 [I-CBP112]
GI50 (AMO-1): 9.39 µM | GI50 (KMM-1): > 20 µM | GI50 (KMS28BM): 4.44 µM | GI50 (LP-1): 1.51 µM | GI50 (MOLP-8): 3.52 µM | GI50 (NCI-H929): 3.8 µM | GI50 (OPM2): 2.82 µM | GI50 (RPMI-8226): 14.6 µM | GI50 (RS4;11): 15.6 µM | GI50 (HL60): 4.55 µM | GI50 (JJN3): 11.2 µM | GI50 (Jurkat): > 20 µM | GI50 (KMS12BM): 2.36 µM | GI50 (KMS12PE): 12.8 µM | GI50 (KMS21BM): 3.26 µM | GI50 (KMS26): 2.3 µM | GI50 (KMS27): > 20 µM | GI50 (Kasumi-1): 3.22 µM | GI50 (ML2): > 20 µM | GI50 (MOLM-13): 15.7 µM | GI50 (MOLT4): > 20 µM | GI50 (NB4): 17.8 µM | GI50 (ROS 50): > 20 µM | GI50 (SET2): 12.6 µM | GI50 (SKNO-1): 9.5 µM | GI50 (U266): 7.61 µM | GI50 (VAL): 14.2 µM | IC50 (MYC mRNA; OPM-2, OPM2, 6 hr): 6.1 µM | IC50 (MYC mRNA; LP-1, 6 hr): 11.3 µM

COc1ccc(CCc2nc3cc(-c4c(C)noc4C)ccc3n2C[C@H](C)N2CCOCC2)cc1Cl [SGC-CBP30]
log2GI50 (AMO-1; AMO1): 0.85 | GI50 (AMO-1): 1.8 µM | GI50 (KMM-1): 11.7 µM | log2GI50 (KMM-1; KMM1): 3.54 | log2GI50 (KMS28BM): 1.12 | GI50 (KMS28BM): 2.17 µM | GI50 (LP-1): 0.78 µM | log2GI50 (LP-1; LP1): -0.36 | GI50 (MOLP-8): 2.06 µM | log2GI50 (MOLP-8; MOLP8): 1.04 | log2GI50 (NCI-H929; H929): 0.75 | GI50 (NCI-H929): 1.68 µM | GI50 (OPM2): 1.53 µM | log2GI50 (OPM2; OPM2): 0.61 | GI50 (RPMI-8226): 3.44 µM | log2GI50 (RPMI-8226; RPMI8226): 1.78 | GI50 (RS4;11): 9.99 µM | log2GI50 (RS4;11; RS411): 3.32 | GI50 (HL60): 4.01 µM | GI50 (JJN3): 2.53 µM | GI50 (Jurkat): 12 µM | GI50 (KMS12BM): 1.3 µM | GI50 (KMS12PE): 5.34 µM | GI50 (KMS21BM): 1.27 µM | GI50 (KMS26): 1.34 µM | GI50 (KMS27): 11.8 µM | GI50 (Kasumi-1): 1.95 µM | GI50 (ML2): 6.65 µM | GI50 (MOLM-13): 6.93 µM | GI50 (MOLT4): 7.62 µM | GI50 (NB4): 3.93 µM | GI50 (ROS 50): 16.4 µM | GI50 (SET2): 4.47 µM | GI50 (SKNO-1): 4.8 µM | GI50 (U266): 2.63 µM | GI50 (VAL): 7.54 µM | log2FC (MYC) (MYC mRNA; AMO1): -1.13 | log2FC (MYC) (MYC mRNA; H929): -1.24 | IC50 (MYC mRNA; OPM-2, OPM2, 6 hr): 2.3 µM | IC50 (MYC mRNA; LP-1, 6 hr): 2.5 µM | log2FC (MYC) (MYC mRNA; KMM1): -0.48 | log2FC (MYC) (MYC mRNA; KMS28BM): -0.63 | log2FC (MYC) (MYC mRNA; LP1): -1.07 | log2FC (MYC) (MYC mRNA; MOLP8): -0.64 | log2FC (MYC) (MYC mRNA; OPM2): -0.71 | log2FC (MYC) (MYC mRNA; RPMI8226): -0.49 | log2FC (MYC) (MYC mRNA; RS411): -0.56
